Test results as given in patent US20210253520A1, “POLYMYXIN-BASED COMPOUNDS USEFUL AS ANTIBACTERIAL AGENTS” (UNIVERSITAT DE BARCELONA, priority 2018, published 2021).
Where two headings read alike, the source gives them in different places. Numbered stars: 1 amine (or outer) side, 2 acyl side, 3 side chain; on linkers, the order of the positions; unused ones are H or OH. Bridge positions count the residues as written; N and C are the ends. Square brackets hold non-standard residues; d marks the D form. Peptide text beside a SMILES is read from it. * marks the point of attachment. X1 = C[C@@H](O)[C@@H](CS[*:1])N[*:2]; dGly(nOct) = CCCCCCCC[C@@H](N)C(=O)O; Hica(2S) = CC(C)C[C@H](O)C(=O)O; Octanoyl = CCCCCCCC(=O)*; Dab = NCC[C@H](N)C(=O)O

What was measured:
[1] = test system: K. pneumoniae MB674; format: cell-based; details: MB674
Experimental: (§1) The antibacterial activity of the polymyxin lipopeptides was measured at ISGlobal following the microdilution test to determine the Minimal Inhibitory Concentrations (MIC) in sterile 96-well polypropilene plates. The concentration range was 32 a […] in Iso-Sensitest broth (Oxoid, ThermoFisher). The results were carried out in triplicate and the highest MIC is the one shown. Bacterial strains were grown in blood agar plates at 37° C. for 17 h. Fresh colonies were used to prepare a McFarland 0.5 solution that was finally added to the plates at 1 to 100 dilution
(§2) Samples of sensitive and multi-drug resistant bacteria were: E. coli ATCC 25922 E. coli MB1410; K. pneumoniae MB674; P. aeruginosa ATCC 27853; P. aeruginosa 36A.

[2] = test system: P. aeruginosa ATCC 27853; experiment: microbe, parasite or virus in culture; format: cell-based; details: ATCC 27853
Experimental: as §1, §2

[3] = test system: E. coli MB1410; experiment: microbe, parasite or virus in culture; format: cell-based; details: MB1410
Experimental: as §1, §2

[4] = test system: E. coli ATCC 25922; experiment: microbe, parasite or virus in culture; format: cell-based; details: ATCC 25922
Experimental: as §1, §2

[5] = test system: P. aeruginosa 36A; experiment: microbe, parasite or virus in culture; format: cell-based; details: 36A
Experimental: as §1, §2

[6] = test system: Swiss CD-1 female mice; experiment: Nephrotoxicity study, histopathological scoring of kidney lesions; format: in vivo; set-up: key to Group Score (GS): mean of per-animal summed 0-4 lesion scores; higher = more nephrotoxic; key to Animal Score (AS), Partial AS: sum of 0-4 lesion parameter scores; higher = more nephrotoxic; details: for Animal Score (AS), Partial AS: sum over all mice; for nephrotoxicity in mice, in words: nephrotoxicity tests carried out in mice, statement of the background
Experimental: Swiss CD-1 female mice weighing approximately 20-24 g (JANVIER Labs) were used, housed in an individually ventilated cage system under specific pathogen-free conditions, and water and food supplied ad libitum. This study plan and the conduct of the study were subjected to review by the Scientific Park of Barcelona Ethical Review Process with the current study procedure Code CEEA (AR) 9377-P2. Mice were administered at a dose of 12 mg/Kg every 2 hours for a total of 6 administrations (total dose 72 mg/Kg), unless otherwise stated. After 20 h, animals were anesthesized with isoflurane, kidneys extracted and prepared for histopathological evaluation, and finally animales were sacrificed. Kidney lesions (tubule dilation, necrosis, tubule casts, cell vacuolization, cell desquamation, and cell swelling) were quantified by microscopical observation (see for instance, Roberts, ACS Infect. Dis., 2015, 1, 568). Each one of these parameters was scored with values from 0 to 4 for each animal, as a global result of observations in kidney. Partial scores have been added up to obtain a final score for each animal (Animal Score, AS). The mean of animal score has been obtained to define the Group Score (GS). The higher the score, the more nephrotoxic a compound is. The nephrotoxicity score has been determined as according to the following table of approximated values: […]

[7] = test system: E. coli ATCC 25922; details: comparative examples, extracted from Scientific Reports 5:10558 or WO2017093210A1; cited from earlier work
[8] = test system: P. aeruginosa ATCC 27853; details: comparative examples, extracted from Scientific Reports 5:10558 or WO2017093210A1; cited from earlier work
[9] = test system: P. aeruginosa 36A; details: comparative examples, extracted from Scientific Reports 5:10558 or WO2017093210A1; cited from earlier work
[10] = test system: E. coli MB1410; details: comparative examples, extracted from Scientific Reports 5:10558 or WO2017093210A1; cited from earlier work
[11] = test system: K. pneumoniae MB674; details: comparative examples, extracted from Scientific Reports 5:10558 or WO2017093210A1; cited from earlier work
[12] = Table 6, 12 mg/Kg every 2 hours × 6, subcutaneous, total 72 mg/Kg
[13] = Table 6, mean of animal scores, 12 mg/Kg every 2 hours × 6, subcutaneous, total 72 mg/Kg
[14] = Table 6, sum of mouse scores, 12 mg/Kg every 2 hours × 6, subcutaneous, total 72 mg/Kg
[15] = Table 7, 8 mg/Kg every 2 hours × 6, total 48 mg/Kg
[16] = Table 8, 12 mg/Kg every 2 hours × 6 sc, total 72 mg/Kg, 3 mice

CCCCCCCC[C@@H](N)C(=O)N[C@H](C(=O)N[C@@H](CCN)C(=O)N[C@H]1CSSC[C@H]([C@@H](C)O)NC(=O)[C@H](CCN)NC(=O)[C@H](CCN)NC(=O)[C@H](CC(C)C)NC(=O)[C@@H](CC(C)C)NC(=O)[C@H](CCN)NC1=O)[C@@H](C)O [Example 6, DAdec-Thr-Dab-cyclo(S-S)[Cys-Dab-DLeu-Leu-Dab-Dab-Ttr]] (H-[dGly(nOct)]T[Dab]C[Dab][dL]L[Dab][Dab]; linker 4-C via X1; N-terminus assumed)
antibacterial activity (MIC) [1]: 0.5 µg/mL
antibacterial activity (MIC) [2]: 1 µg/mL
antibacterial activity (MIC) [3]: 0.5 µg/mL
antibacterial activity (MIC) [4]: 2 µg/mL
antibacterial activity (MIC) [5]: 0.5 µg/mL
Mice found dead [6, 12]: 2
Group Score (GS) [6, 13]: 1
Cell desquamation, Partial AS [6, 14]: 0
Cell vacuolization, Partial AS [6, 14]: 0
Cloudy swelling, Partial AS [6, 14]: 5
Tubular casts, Partial AS [6, 14]: 1
Tubular dilation, Partial AS [6, 14]: 0
Tubular necrosis, Partial AS [6, 14]: 0
Animal Score (AS), Partial AS [6, 12]: 6
AS, Partial AS [6, 15]: 1
Cell vacuolization, Partial AS [6, 15]: 0
Cloudy swelling, Partial AS [6, 15]: 1
Group Score (GS) [6, 15]: 0.2
Mice found dead [6, 15]: None
Tubular casts, Partial AS [6, 15]: 0
Tubular dilation, Partial AS [6, 15]: 0
Tubular necrosis, Partial AS [6, 15]: 0

CCCCCCCC[C@@H](N)C(=O)N[C@H](C(=O)N[C@@H](CCN)C(=O)N[C@H]1CSSC[C@H]([C@@H](C)O)NC(=O)[C@H](CCN)NC(=O)[C@H](CCN)NC(=O)[C@H](CC(C)C)OC(=O)[C@@H](Cc2ccccc2)NC(=O)[C@H](CCN)NC1=O)[C@@H](C)O [Example 10, DAdec-Thr-Dab-cyclo(S-S)[Cys-Dab-DPhe-Ole-Dab-Dab-Ttr]] (H-[dGly(nOct)]T[Dab]C[Dab][dF][Hica(2S)][Dab][Dab]; linker 4-C via X1)
antibacterial activity (MIC) [1]: 2 µg/mL
antibacterial activity (MIC) [2]: 2 µg/mL
antibacterial activity (MIC) [3]: 1 µg/mL
antibacterial activity (MIC) [4]: 2 µg/mL
antibacterial activity (MIC) [5]: 2 µg/mL
Mice found dead [6, 12]: None
Group Score (GS) [6, 13]: 0
Cell desquamation, Partial AS [6, 14]: 0
Cell vacuolization, Partial AS [6, 14]: 0
Cloudy swelling, Partial AS [6, 14]: 0
Tubular casts, Partial AS [6, 14]: 0
Tubular dilation, Partial AS [6, 14]: 0
Tubular necrosis, Partial AS [6, 14]: 0
Animal Score (AS), Partial AS [6, 12]: 0

CCCCCCCC[C@@H](N)C(=O)N[C@H](C(=O)N[C@@H](CCN)C(=O)N[C@H]1CSSC[C@H]([C@@H](C)O)NC(=O)[C@H](CCN)NC(=O)[C@H](CCN)NC(=O)[C@H](CC(C)C)OC(=O)[C@@H](CC(C)C)NC(=O)[C@H](CCN)NC1=O)[C@@H](C)O [Example 8, DAdec-Thr-Dab-cyclo(S-S)[Cys-Dab-DLeu-OLe-Dab-Dab-Ttr]] (H-[dGly(nOct)]T[Dab]C[Dab][dL][Hica(2S)][Dab][Dab]; linker 4-C via X1)
antibacterial activity (MIC) [1]: 1 µg/mL
antibacterial activity (MIC) [2]: 2 µg/mL
antibacterial activity (MIC) [3]: 1 µg/mL
antibacterial activity (MIC) [4]: 2 µg/mL
antibacterial activity (MIC) [5]: 1 µg/mL
Mice found dead [6, 12]: None
Group Score (GS) [6, 13]: 0
Cell desquamation, Partial AS [6, 14]: 0
Cell vacuolization, Partial AS [6, 14]: 0
Cloudy swelling, Partial AS [6, 14]: 0
Tubular casts, Partial AS [6, 14]: 0
Tubular dilation, Partial AS [6, 14]: 0
Tubular necrosis, Partial AS [6, 14]: 0
Animal Score (AS), Partial AS [6, 12]: 0

DAoc-Thr-Dab-cyclo(S-S)[Cys-Dab-DAoc-Leu-Dab-Dab-DCys] [compound 4]
antibacterial activity (MIC) [7]: 4 µg/mL
antibacterial activity (MIC) [8]: 2 µg/mL
antibacterial activity (MIC) [9]: 2 µg/mL
antibacterial activity (MIC) [10]: 4 µg/mL
Group Score (GS) [6, 16]: All mice dead
Mice found dead [6, 16]: 3
nephrotoxicity in mice, in words [6]: showed nephrotoxicity
antibacterial activity (MIC) [11]: 2 µg/mL

Heptanoyl-Dab-Thr-Dab-cyclo(S-S)[Cys-Dab-DAoc-Nle-Dab-Dab-DCys] [compound 3]
antibacterial activity (MIC) [7]: 16 µg/mL
antibacterial activity (MIC) [8]: 2 µg/mL
antibacterial activity (MIC) [9]: 2 µg/mL
antibacterial activity (MIC) [10]: 2 µg/mL
AS, Partial AS [6, 16]: 8
Cell vacuolization, Partial AS [6, 16]: 3
Group Score (GS) [6, 16]: 8
Mice found dead [6, 16]: 2 dead
Tubular dilaion, Partial AS [6, 16]: 2
Tubular necrosis, Partial AS [6, 16]: 3
nephrotoxicity in mice, in words [6]: showed nephrotoxicity
antibacterial activity (MIC) [11]: 2 µg/mL

CCCCCCCC[C@@H](N)C(=O)N[C@H](C(=O)N[C@@H](CCN)C(=O)N[C@H]1CSSC[C@H]([C@@H](C)O)NC(=O)[C@H](CCN)NC(=O)[C@H](CCN)NC(=O)[C@H](CC(C)C)NC(=O)[C@@H](Cc2ccccc2)NC(=O)[C@H](CCN)NC1=O)[C@@H](C)O [Example 5, DAdec-Thr-Dab-cyclo(S-S)[Cys-Dab-DPhe-Leu-Dab-Dab-Ttr]] (H-[dGly(nOct)]T[Dab]C[Dab][dF]L[Dab][Dab]; linker 4-C via X1; N-terminus assumed)
antibacterial activity (MIC) [1]: 1 µg/mL
antibacterial activity (MIC) [2]: 2 µg/mL
antibacterial activity (MIC) [3]: 1 µg/mL
antibacterial activity (MIC) [4]: 1 µg/mL
antibacterial activity (MIC) [5]: 2 µg/mL
Mice found dead [6, 12]: None
Group Score (GS) [6, 13]: 0.4
Cell desquamation, Partial AS [6, 14]: 0
Cell vacuolization, Partial AS [6, 14]: 0
Cloudy swelling, Partial AS [6, 14]: 3
Tubular casts, Partial AS [6, 14]: 0
Tubular dilation, Partial AS [6, 14]: 0
Tubular necrosis, Partial AS [6, 14]: 0
Animal Score (AS), Partial AS [6, 12]: 3
AS, Partial AS [6, 15]: 0
Cell vacuolization, Partial AS [6, 15]: 0
Cloudy swelling, Partial AS [6, 15]: 0
Group Score (GS) [6, 15]: 0
Mice found dead [6, 15]: None
Tubular casts, Partial AS [6, 15]: 0
Tubular dilation, Partial AS [6, 15]: 0
Tubular necrosis, Partial AS [6, 15]: 0

DAoc-Thr-Dab-cyclo(S-S)[Cys-Dab-DNIe-Leu-Dab-Dab-DCys] [compound 5]
antibacterial activity (MIC) [7]: 16 µg/mL
antibacterial activity (MIC) [8]: 4 µg/mL
antibacterial activity (MIC) [9]: 2 µg/mL
antibacterial activity (MIC) [10]: 8 µg/mL
AS, Partial AS [6, 16]: 13
Cell vacuolization, Partial AS [6, 16]: 0
Cloudy swelling, Partial AS [6, 16]: 4
Group Score (GS) [6, 16]: 4.3
Mice found dead [6, 16]: none
Tubular casts, Partial AS [6, 16]: 3
Tubular dilaion, Partial AS [6, 16]: 6
Tubular necrosis, Partial AS [6, 16]: 0
nephrotoxicity in mice, in words [6]: showed nephrotoxicity
antibacterial activity (MIC) [11]: 8 µg/mL

CCCCCCCC(=O)N[C@@H](CCN)C(=O)N[C@H](C(=O)N[C@@H](CCN)C(=O)N[C@H]1CSSC[C@H]([C@@H](C)O)NC(=O)[C@H](CCN)NC(=O)[C@H](CCN)NC(=O)[C@H](CC(C)C)OC(=O)[C@@H](Cc2ccccc2)NC(=O)[C@H](CCN)NC1=O)[C@@H](C)O [Example 9, Octanoyl-Dab-Thr-Dab-cyclo(S-S)[Cys-Dab-DPhe-OLe-Dab-Dab-Ttr]] (Octanoyl-[Dab]T[Dab]C[Dab][dF][Hica(2S)][Dab][Dab]; linker 4-C via X1)
antibacterial activity (MIC) [1]: 1 µg/mL
antibacterial activity (MIC) [2]: 2 µg/mL
antibacterial activity (MIC) [3]: 1 µg/mL
antibacterial activity (MIC) [4]: 4 µg/mL
antibacterial activity (MIC) [5]: 2 µg/mL
Mice found dead [6, 12]: 1
Group Score (GS) [6, 13]: 0
Cell desquamation, Partial AS [6, 14]: 0
Cell vacuolization, Partial AS [6, 14]: 0
Cloudy swelling, Partial AS [6, 14]: 0
Tubular casts, Partial AS [6, 14]: 0
Tubular dilation, Partial AS [6, 14]: 0
Tubular necrosis, Partial AS [6, 14]: 0
Animal Score (AS), Partial AS [6, 12]: 0
